Assay results from publication PMC9312238, “Novel Organoselenium Redox Modulators with Potential Anticancer, Antimicrobial, and Antioxidant Activities” (Antioxidants, 2022).
Like-named read-outs stand apart in the source and are kept apart here.

What was measured:
Staphylococcus aureus = experiment: Agar diffusion assay, S. aureus; format: cell-based; parameters: S. aureus A% (activity index): concentration or dose not given beside the values; conditions: for zone of inhibition at 20 µM: Staphylococcus aureus, read-out: S. aureus IZD (mm); for S. aureus A% (activity index): zone of test compound / zone of standard (ampicillin) x 100
Protocol: (§1) The antimicrobial activities of the OSe compounds were evaluated against C. albicans yeast, as well as E. coli and S. bacteria, employing the agar well diffusion assay. Furthermore, the MICs (in µM) were determined by the microdilution method according to the reported protocol. More details are in the Supporting Information.
(§2) Compounds were evaluated for their antimicrobial activity against the Gram-negative bacteria Escherichia coli (E. coli) and the Gram-positive bacteria Staphylococcus aureus (S. aureus), as well as the Candida albicans (C. albicans) fungal strain, using the agar diffusion assay. Ampicillin and clotrimazole were used as standards. Indeed, the antimicrobial properties of the OSe compounds were also obtained from the activity index percentage (A%) according to Equation (2). (2) A%=Zone of inhibition by test compound diametre/Zone of inhibition by standard diametre×100 . […]
(§3) 1.1.1. The antimicrobial activity
The antimicrobial activities of the OSe compounds were evaluated against C. albicans yeast as well as E. coli gram-negative and S. aureus gram-positive bacteria employing the agar well diffusion assay. Briefly, a concentration of 1 mM was prepared for each compound by dissolving in DMSO. Paper discs of standard size […] were steri-lized in an autoclave and soaked in 20 µL of the test compounds, and placed in the Petri dishes, which in turn contain a nutrient media (agar 20 g, peptone 5 g, and beef extract 3 g) seeded with the dedicated strain. Incubation lasted for 24 h at 36
(§4) Furthermore, the MICs (in µM) were determined by the microdilution method according to the reported protocol. […]
(§5) Inhibition%= (Ablank-Asample)/(Ablank)*100. (1)

Escherichia coli = experiment: Agar diffusion assay, E. coli; format: cell-based; parameters: E. coli A% (activity index): concentration or dose not given beside the values; conditions: for zone of inhibition at 20 µM: Escherichia coli, read-out: E. coli IZD (mm); for E. coli A% (activity index): zone of test compound / zone of standard (ampicillin) x 100
WI-38 cells = experiment: cells; format: cell-based, human; conditions: Homo sapiens
Protocol: (§6) Cells were obtained from the ATCC Company (VACSERA), Cairo, Egypt. MTT assay were performed according to the literature method. More details are in the Supporting Information.
(§7) Recently, OSe compounds gained much attention as possible drug candidates due to their various pharmacological properties. […] Therefore, the anticancer attributes of the newly prepared OSe compounds were estimated using the MTT assay against MCF-7 and HepG2 and compared with their respective cytotoxicity in WI-38 primary cells. The anthracycline drug doxorubicin was used as the standard. […] Moreover, the therapeutic index (TI) was also calculated (according to Equation (1)), which is considered a measure of the selectivity and safety of the synthesized compounds. (1) TI=IC50 for the normal WI38 cells/IC50 for the cancer cells […]
(§8) 1.1. The biological assays
(§9) 1.1.1. The anticancer activity
(§10) The breast adenocarcinoma (MCF-7), Hepatocellular carcinoma (HEPG-2), and nor-mal fibroblast (WI-38) cells were obtained from ATCC via Holding company for biological products and vaccines (VACSERA), Cairo, Egypt.
(§11) DMSO, and fetal bovine serum was obtained from Sigma Aldrich. Dulbecco’s modified Eagle’s medium was used as the culture medium for the cells, and the cytotoxicity was evaluated using the reported MTT assay. Doxorubicin was used as the positive reference, and the IC50 values were obtained from the corresponding dose-response curve.
(§12) This colorimetric assay is based on converting the yellow tetrazolium bromide (MTT) to a purple formazan derivative by mitochondrial succinate dehydrogenase in viable cells. […]
(§13) added were 100 units/ml penicillin and 100µg/ml streptomycin at 37 C in a 5% Co2 incu-bator. The cell lines were seeded in a 96-well plate at a density of 1.0x10^4 cells/well. at 37 C for 48 h under 5% Co2. After incubation, the cells were treated with different concentra-tions of compounds and incubated for 24 h. After 24 h of drug treatment, 20 µl of MTT solution at 5mg/ml was added and incubated for 4 h. Finally, dimethyl sulfoxide (DMSO) in the volume of 100 µl is added to each well to dissolve the purple formazan formed. The colorimetric assay is measured and recorded at an absorbance of 570 nm using a plate […]
(§14) The percentage of the relative cell viability was calculated as (A570 of treated samples/A570 of the untreated sample) X 100. […]

MCF-7 cells = experiment: cells; format: cell-based, human; conditions: for IC50: Homo sapiens; for MCF7 TI (IC50 WI-38 / IC50 MCF-7): therapeutic index, ratio of WI-38 IC50 to MCF-7 IC50
Protocol: as §6, §7, §8, §9, §10, §11, §12, §13, §14

HepG2 cells = experiment: cells; format: cell-based, human; conditions: for IC50: Homo sapiens
Protocol: as §6
Recently, OSe compounds gained much attention as possible drug candidates due to their various pharmacological properties. Our group has reported several OSe candidates with potential anticancer, antimicrobial, and antioxidant activities. Therefore, the anticancer attributes of the newly prepared OSe compounds were estimated using the MTT assay against MCF-7 and HepG2 and compared with their respective cytotoxicity in WI-38 primary cells. The anthracycline drug doxorubicin was used as the standard. The minimal inhibition concentration required to kill 50% of the cells (IC50) was calculated from dose-response curves presented in Table 1. Moreover, the therapeutic index (TI) was also calculated (according to Equation (1)), which is considered a measure of the selectivity and safety of the synthesized compounds. (1) TI=IC50 for the normal WI38 cells/IC50 for the cancer cells […]
as §8, §9
The breast adenocarcinoma (MCF-7), Hepatocellular carcinoma (HEPG-2), and nor-mal fibroblast (WI-38) cells were obtained from ATCC via Holding company for biological products and vaccines (VACSERA), Cairo, Egypt. The reagents RPMI-1640 medium, MTT, DMSO, and fetal bovine serum was obtained from Sigma Aldrich. Dulbecco’s modified Eagle’s medium was used as the culture medium for the cells, and the cytotoxicity was evaluated using the reported MTT assay. Doxorubicin was used as the positive reference, and the IC50 values were obtained from the corresponding dose-response curve.
This colorimetric assay is based on converting the yellow tetrazolium bromide (MTT) to a purple formazan derivative by mitochondrial succinate dehydrogenase in viable cells.
Cell lines were cultured in RPMI-1640 medium with 10% fetal bovine serum. Antibiotics added were 100 units/ml penicillin and 100µg/ml streptomycin at 37 C in a 5% Co2 incu-bator. The cell lines were seeded in a 96-well plate at a density of 1.0x10^4 cells/well. at 37 C for 48 h under 5% Co2. After incubation, the cells were treated with different concentra-tions of compounds and incubated for 24 h. After 24 h of drug treatment, 20 µl of MTT solution at 5mg/ml was added and incubated for 4 h. Finally, dimethyl sulfoxide (DMSO) in the volume of 100 µl is added to each well to dissolve the purple formazan formed. The colorimetric assay is measured and recorded at an absorbance of 570 nm using a plate reader (EXL 800, USA). The percentage of the relative cell viability was calculated as (A570 of treated samples/A570 of the untreated sample) X 100. […]
as §5

Candida albicans = experiment: microbe, parasite or virus in culture; format: cell-based; conditions: for zone of inhibition at 20 µM: Candida albicans, inhibition zone diameter, six-mm disks soaked with 20 μM of compound, read-out: C. albicans IZD (mm); for C. albicans A% (activity index): zone of test compound / zone of standard (clotrimazole) x 100
Protocol: as §1, §2, §3
The antimicrobial activities of the OSe compounds were evaluated against C. albicans yeast as well as E. coli gram-negative and S. aureus gram-positive bacteria employing the agar well diffusion assay. […]
compound by dissolving in DMSO. […]
Petri dishes, which in turn contain a nutrient media (agar 20 g, peptone 5 g, and beef extract 3 g) seeded with the dedicated strain. Incubation lasted for 24 h at 36
as §4, §5

[1] = inhibition zone diameter, six-mm disks soaked with 20 μM of compound
[2] = MTT, 24 h incubation, normal WI-38 cells, read-out: WI38 IC50
[3] = MCF7, MTT, 24 h incubation, MCF-7 cells, read-out: MCF7 IC50
[4] = MTT, 24 h incubation, HepG2 cells, read-out: HepG2 IC50

Compound | melting point | zone of inhibition at 20 µM (Staphylococcus aureus; [1]) | S. aureus A% (activity index) (Staphylococcus aureus) | zone of inhibition at 20 µM (Escherichia coli; [1]) | E. coli A% (activity index) (Escherichia coli) | IC50 (WI-38 cells; [2]) | IC50 (MCF-7 cells; [3]) | IC50 (HepG2 cells; [4]) | other results
O=C(C[Se]c1ccc(N=Cc2ccccc2O)cc1)Nc1ccccc1 | 150.3 °C |  |  |  |  |  |  |  | 
CC1(C)S[C@@H]2[C@H](NC(=O)[C@H](N)c3ccccc3)C(=O)N2[C@H]1C(=O)O [Ampicillin, ampicillin, reference compound] |  | 21 mm | 100% | 23 mm | 100% |  |  |  | 
N#CC(C#N)=NNc1ccc([Se]CC(=O)Nc2ccccc2)cc1 [Compound 7] | 177 to 179 °C |  | 29% |  | 13% |  |  |  | IC50 (WI-38 cells; WI-38, 24 h, read-out: WI38 IC50 (µM)): > 100 µM; IC50 (MCF-7 cells; MCF7, 24 h, read-out: MCF7 IC50 (µM)): > 100 µM; zone of inhibition at 20 µM (Staphylococcus aureus): 6 mm; IC50 (HepG2 cells; HepG2, 24 h, read-out: HepG2 IC50 (µM)): > 100 µM; zone of inhibition at 20 µM (Escherichia coli): 3 mm
CC1=NN(c2ccccc2)C(=O)C1=NNc1ccc([Se]CC(=O)Nc2ccccc2)cc1 [Compound 8, 2-((4-(2-(3-methyl-5-oxo-1-phenyl-1H-pyrazol-4(5H)-ylidene)hydrazinyl)phenyl)selanyl)-N-phenylacetamide] | 197 to 199 °C | 4 mm | 19% |  |  | > 100 µM | > 100 µM | > 100 µM | 
O=C(O)C=CC(=O)Nc1ccc([Se]CC(=O)Nc2ccccc2)cc1 [Compound 10, 4-oxo-4-((4-((2-oxo-2-(phenylamino)ethyl)selanyl)phenyl)amino)but-2-enoic acid] |  | 11 mm | 52% | 9 mm | 39% | 46 ± 2.9 µM | 34.8 ± 2.5 µM | > 100 µM | MCF7 TI (IC50 WI-38 / IC50 MCF-7) (MCF-7 cells): 1.3; zone of inhibition at 20 µM (Candida albicans): 8 mm; C. albicans A% (activity index) (Candida albicans): 33%
O=C(C[Se]c1ccc(N2C(=O)c3ccccc3C2=O)cc1)Nc1ccccc1 [Compound 12, 2-((4-(1,3-dioxoisoindolin-2-yl)phenyl)selanyl)-N-phenylacetamide] | 261 to 262 °C | 8 mm | 38% | 6 mm | 26% | > 100 µM | > 100 µM | > 100 µM | zone of inhibition at 20 µM (Candida albicans): 7 mm; C. albicans A% (activity index) (Candida albicans): 29%
O=C(C[Se]c1ccc(N2C(=O)C=CC2=O)cc1)Nc1ccccc1 [Compound 13, 2-((4-(2,5-dioxo-2,5-dihydro-1H-pyrrol-1-yl)phenyl)selanyl)-N-phenylacetamide] | 169 to 170 °C | 6 mm | 29% | 5 mm | 22% | > 100 µM | > 100 µM | > 100 µM | 
O=CNc1ccc([Se]CC(=O)Nc2ccccc2)cc1 [Compound 17, 2-((4-formamidophenyl)selanyl)-N-phenylacetamide] | 143 to 144 °C |  |  |  |  | > 100 µM | > 100 µM | > 100 µM | 
O=C(CCl)Nc1ccc([Se]CC(=O)Nc2ccccc2)cc1 [Compound 19] | 184.8 °C |  |  |  |  | > 100 µM | > 100 µM | > 100 µM | 
COc1cccc2c1C(=O)c1c(O)c3c(c(O)c1C2=O)C[C@@](O)(C(=O)CO)C[C@@H]3O[C@H]1C[C@H](N)[C@H](O)[C@H](C)O1 [Doxorubicin, doxorubicin, reference compound] |  |  |  |  |  |  |  | 4.5 ± 0.2 µM | MCF7 TI (IC50 WI-38 / IC50 MCF-7) (MCF-7 cells): 1.6; HepG2 TI (IC50 WI-38 / IC50 HepG2) (HepG2 cells; therapeutic index, ratio of WI-38 IC50 to HepG2 IC50): 1.5
